Results reported in US10981957B2, “Peptides having antimicrobial activity and new enzyme capable of converting L-configured residue in D-configured amino acid in a peptide” (INSTITUT NATIONAL DE RECHERCHE POUR L'AGRICULTURE, …, priority 2015, dated 2021).
Like-named read-outs stand apart in the source and are kept apart here. Square brackets hold non-standard residues; d marks the D form. Ends that are not written are not given here. Peptide text beside a SMILES is read from it. d(aIle) = CC[C@H](C)[C@@H](N)C(=O)O

Legend:
Streptococcus agalactiae = assay: Inhibition assay on liquid medium, Streptococcus agalactiae in BHI medium; format: cell-based; details: peptide at 100 μM; FIG. 12
Procedure: (§1) FIG. 12—Growth of Streptococcus agalactiae in liquid BHI medium in the presence of YydF33-49 (a), YydF33_49AA (b) (SEQ ID NO: 66), YydF33_49VV (c) (SEQ ID NO: 67), YydF33_49II (d) (SEQ ID NO: 68), Peptide-SA1 (e) (SEQ Ill NO: 62), Peptide-SA2 (f) (SEQ ID NO: 63), Peptide-SE (g) (SEQ ID NO: 64) or Peptide-SP (h) (SEQ ID NO: 65) at 100 μM. In bold, epimerized residues.
(§2) Inhibition Assay on Liquid Medium
(§3) An overnight culture of the bacterial strain to be assayed was freshly inoculated to sterile LB liquid medium. After 4 hours of bacterial growth at 37° C., the medium was diluted to 1/10,000 and inoculated into sterile liquid LB or BHI medium. Peptide solution was added ( 1/100) to a final concentration ranging from 0.01 to 100 μM and OD at 600 nm was recorded continuously using a Tecan microplate reader (Infinite® 200 PRO series).

B. subtilis [1] = format: cell-based, Bacillus subtilis; details: for Growth of B. subtilis in liquid LB medium: OD at 600 nm, FIG. 5B, FIG. 8a
Source text: (§4) FIG. 5—Activity of YydF18-49 of YydG. (FIG. 5A) Plate growth inhibition assay of B. subtilis in the presence of YydF18-49 or the epimierized product YydFb. (FIG. 5B) Growth of Bacillus subtilis in LB medium in the absence of peptide (□) or in the presence of the YydF18-49 peptide with a free C-terminus: Ac-[…] (SEQ ID No 20) containing either no modification (▪), a D-allo-lle (♦), a D-Val (⋄) or two-epimerized residues: Ac-GLLDESQKLAKVNDLWYF{d-V}KSKENRW{d-I}LGSGH (SEQ ID No 20) (▴). The OD values are the means of 3 independent cultures.
FIG. 8—(A) Growth of B. subtilis in liquid LB medium in the presence of YydF33-49 or YydF33-49DD. B. subtilis was grown in LB medium alone (♦), in the presence of YydF33-49 (□) (SEQ ID NO: 76, top) or YydF33-49DD (▪) (SEQ ID NO: 75, bottom). Each measurement is the mean of three growth experiments with the SD indicated. The epimerized residues are in black. (b) Growth ratio of B. subtilis in presence of YydF18-49 (100 μM) or YydF18-49DD (100, 10 or 1 μM). Ratios were determined by comparison with growth in the absence of peptide. (c) Growth ratio of B. subtilis in presence of YydF33-49 or YydF33-49DD (100, 10, 1, 0.1 or 0.01 μM). Ratios were determined by comparison with bacterial growth in the absence of peptide.
FIG. 9—Growth of B. subtilis in liquid LB medium in the presence of YydF18-49 (□) or after addition (arrow) of the YydF18-49DD (▪) after 3 hours of growth. Each measurement is the mean of three growth experiments with the SD indicated.
as §1, with “10—Growth” for “12—Growth”, “B. subtilis” for “Streptococcus agalactiae”, “LB” for “BHI”, “[…]” for “YydF33-49”, “YydF33_49vv” for “YydF33_49VV”, “ID” for “Ill”
as §2, §3

Enterococcus faecalis = assay: Inhibition assay on liquid medium, Enterococcus faecalis in BHI medium; format: cell-based; details: peptide at 100 μM; FIG. 11
Procedure: as §1, with “11—Growth” for “12—Growth”, “Enterococcus faecalis” for “Streptococcus agalactiae”, “ID” for “Ill”
as §2, §3

B. subtilis [2] = assay: Inhibition assay on solid medium (plate growth inhibition assay); format: cell-based, Bacillus subtilis; details: 200 μg of peptide spotted, 37° C., FIG. 5A
Source text: as §4
Inhibition Assay on Solid Medium
An overnight culture of the bacterial strain to be assayed was freshly inoculated to sterile BHI liquid medium. After 4 hours of bacterial growth at 37° C., the medium was diluted to 1/1000 and inoculated into a soft agarose medium pre-heated at 42° C. The agarose medium containing bacteria was overlaid on a previously jellified sterile BHI agarose layer. 200 μg of peptide was spotted onto the plate and bacterial growth proceeded at 37° C.

Molecule | Growth of Streptococcus agalactiae in liquid BHI medium (Streptococcus agalactiae) | Growth of B. subtilis in liquid LB medium (B. subtilis [1]) | Growth of Enterococcus faecalis in liquid BHI medium (Enterococcus faecalis) | other results
CC[C@H](C)[C@@H](NC(=O)[C@H](Cc1c[nH]c2ccccc12)NC(=O)[C@H](CCCNC(=N)N)NC(=O)[C@H](CC(N)=O)NC(=O)[C@H](CCC(=O)O)NC(=O)[C@H](CCCCN)NC(=O)[C@H](CO)NC(=O)[C@H](CCCCN)NC(=O)[C@H](NC(=O)[C@H](Cc1ccccc1)NC(=O)[C@H](Cc1ccc(O)cc1)NC(=O)[C@@H](N)Cc1c[nH]c2ccccc12)C(C)C)C(=O)N[C@@H](CC(C)C)C(=O)NCC(=O)N[C@@H](CO)C(=O)NCC(=O)N[C@@H](Cc1c[nH]cn1)C(=O)O [YydF33-49DD] (H-WYF[dV]KSKENRW[d(aIle)]LGSGH-OH; N-terminus and C-terminus assumed) | inhibited | inhibit bacterial growth |  | MIC (B. subtilis [1]): < 1 µM
WYFVKSKQNRWVVGSGH (Peptide-SE) | inhibitors |  | totally inhibited | 
WYFVRSSKNRWVAGSAH (Peptide-SA1) | inhibitors |  | significantly delayed | 
WYFIKSKENRWILGSGH (also: epimerized D-residues, positions not given here) [YydF33-49II] | not |  |  | 
WYFVKSKENRWILGSGH [YydF33-49] |  | Only the YYdF33-49DD peptide proved to inhibit bacterial growth |  | 
WYFVRNSKNRWVAGSAH (Peptide-SA2) | inhibitors |  | significantly delayed | 
Ac-GLLDESQKLAKVNDLWYF{d-V}KSKENRW{d-I}LGSGH [YydF18-49DD] |  | bacterial growth inhibition |  | inhibition growth of B. subtilis (plate growth inhibition assay) (B. subtilis [2]): strong inhibition growth; Growth of B. subtilis in liquid LB medium (B. subtilis [1]; listed as epimerized peptide): strong and persistent inhibition
WYFVKSKENRWVLGSGH (also: epimerized D-residues, positions not given here) [YydF33-49VV] | inhibited |  |  | 
Ac-GLLDESQKLAKVNDLWYFVKSKENRWILGSGH [YydF18-49] |  |  |  | inhibition growth of B. subtilis (plate growth inhibition assay) (B. subtilis [2]): devoid of activity; cell density after addition of peptide at mid-exponential phase (B. subtilis [1]; B. subtilis, liquid LB medium, peptide added after 3 hours of growth, FIG. 9): a clear slow down followed by a decrease of the cell density
WYFAKSKENRWALGSGH (YydF33_49AA) | inhibited |  | totally inhibited | 
